In patent US11304956B2, “Use of 7-bromo-5-(O-chlorophenyl)-3-propoxy-1,2-dihydro-3H-1,4-benzodiazepin-2-one for inhibition of neuropathic pain and seizures of different etiology” (priority 2016, dated 2022):

Experiments:
[1] = tested on: carrageenan rat paw edema; test: Carrageenan rat paw edema; assay type: in vivo, male white rats; settings: 10.0 mg/kg intraperitoneally 40 min before carrageenan
Source text: Given the fact that Compound 1 affects not only the painful, but also the inflammatory phase, we undertook an in-depth study of its anti-inflammatory effect. The most common screening method of anti-inflammatory activity is the model of inflammatory edema of the rat hind paw, induced by the subplantar administration of various phlogogenic agents. Under the conditions of carrageenan administration, a sufficiently pronounced edema reaction is observed, which slowly develops and persists for a long time. The maximum size of edema is observed in 2-4 hours.
The anti-inflammatory properties of the test compounds were studied in the model of carrageenan rat paw edema. Male white rats weighing 150-180 g were used in the experiments. Before the administration of the experimental substances, the volumes of the rats' paws subsequently injected by phlogogen were measured. The test compounds and the reference drug—diclofenac-sodium, were administered intraperitoneally 40 minutes prior the inflammation induction. The control group of the rats received an equivalent amount of physiological solution in the emulsion with Tween-80. Acute aseptic inflammation was induced by a 1% aqueous solution of 0.1 ml)—carrageenan injection under plantar aponeurosis of the hind paw of animals of the experimental and control groups (see Trinus F. P. Nonsteroidal anti-inflammatory drugs/F. P. Trinus, N. A. Mohort, B. M. Klebanov//K., 1975, pp. 204-231., Winter C. A. Carrageenin—induced edema in hind paw of the rat as an assay for antiinflammatory drugs/C. A. Winter, E. A. Risley, G. V. Nuss//Proc. Soc. Exp. Biol. Med.—1962.—Vol. 111.—P. 544-547). The inflammatory reaction significance was evaluated after two and four hours after the phlogogen injection. Registration of edema size was carried out by mechanical measurement of foot volume in dynamics according to Zakharevsky A. S. (see Zaharevskiy A. S. The influence of some indole derivatives on the nervous system. Diss. cand. med. science/Zaharevskiy Aleksandr Stepanovich-Minsk.—1969.—78-80 p.). The edema extent was estimated according to the difference in volume between the swollen paw and the paw before inflammation induction. The anti-inflammatory efficacy of the test compounds was determined as the ability of the test compounds to suppress the inflammatory response in the experimental animals compared to the control animals and expressed as a percentage. The calculation was carried out according to the following formula:
The percentage of inflammation suppression=(ΔVκ−ΔV ? /ΔVκ)·100%,
where: ΔVκ—the average increase in the volume of the swollen paw in the control;
ΔV ? —the average increase in the volume of the swollen paw in animals injected by experimental substances.

formalin test in mice = test: Formalin test (licking time of the injected paw); assay type: in vivo, white male non-linear mice; settings: 10.00 mg/kg intraperitoneally 40 min before formalin
MES-induced seizures = settings: literature data; interval in brackets; cited from earlier work
[2] = tested on: pentylenetetrazole-induced convulsions; settings: literature data; interval in brackets; cited from earlier work
[3] = tested on: model of neuropathic pain in rats; test: Model of neuropathic pain (sciatic nerve ligation), threshold of pain sensitivity by dolorimeter; assay type: in vivo, male Wistar rats; settings: for Changes in the threshold of pain perception, regarding healthy limb: damaged vs healthy limb before administration (baseline); for Threshold of pain sensitivity, damaged limb / Threshold of pain sensitivity, healthy limb: day 14 after ligation, before administration (baseline), M±m, n=10; for Pain perception threshold changes, regarding pathology before administration of compounds / Threshold of pain sensitivity 2 hours after compounds administration: 2 hours; for Threshold of pain sensitivity 2 hours after compounds administration: damaged limb
Protocol: An evaluation of the antinociceptive action of the test compound (1) on a model of neuropathic pain was carried out on 50 male Wistar rats weighing 270-310 g. The model of neuropathic pain was reproduced by ligation of the sciatic nerve at the level of the upper third of the thigh at the level of the popliteal fossa higher than the site of its trifurcation by N. tibialis, N. peroneus and N. suralis (see Mironov A. N. et al. Guidelines for conducting preclinical studies of drugs. Part one.—Moscow 2012. p. 197-219). The development of the pathological process lasted 14 days. The degree of hyperalgesia was determined using a dolorimeter (Dolorimeter Baseline, USA) by determining the threshold of pain sensitivity (TPS)—the minimum pressure on the lower surface of the rat's foot (g/mm^2), which caused pain in the animal (vocalization and/or withdrawal of the foot). Each animal was given 5 attempts; the threshold value was taken with such a pressure force, which caused a positive response in at least one attempt. The threshold of pain sensitivity was compared on intact and damaged limbs on day 14 after ligation (pathology without treatment), as well as on the injured limb after 2 hours (peak of action) after the drugs administration. The test compound and the reference drug (ketorolac) were administered intragastrally (as gavage) once at doses of 0.5 and 3 mg/kg. Sciatic nerve ligation in animals caused the development of neuropathic pain syndrome, which manifested itself in behavioral reactions of the rat and lowering the threshold of pain sensitivity by an average of 44-48% (see Table 1). The analgesic effect of Compound 1 compared with ketorolac under the conditions of their intragastral administration on the model of neuropathic pain in rats (M±m, n=10, where n is the number of animals in the experiments) is shown in Table 1.

[4] = tested on: thermal tail flick test in rats; test: Model of thermal stimulation (tail-flick); assay type: in vivo; settings: n=10
Source text: The problem was solved by experimental study of the antinociceptive action of the test compound 1 on the model of NP in rats and on the model of pain with the participation of central mechanisms, in particular, thermal tail flick test in rats. Based on the available data on the positive response of constant pain to anticonvulsants in the acute and paroxysmal phase and considering structure 1, we performed an evaluation of the anticonvulsant action of the compound on models of pentamethylenetetrazol-induced convulsions and seizures caused by maximal electroshock (MES). We have taken into account the possible side reaction (ulcerogenic effect) of the compound in experimental animals, expressed in the formation of defects in the mucous membrane of the gastrointestinal tract or in provocation of already existing peptic ulcer relapses. The probability of ulcers formation of medicinal origin is especially high during administration of non-steroidal anti-inflammatory drugs in high doses and in combination with their long-term use in the form of tablets.
A more pronounced effect was after parenteral administration (see Table 2). Control: solvent (twin, distilled water, pH-corrector). Results of the study of Compound 1 and ketorolac analgesic effects on the model of thermal stimulation (tail-flick) as degree of pain sensitivity threshold increase in relation to the initial level (%), n=10, are given in Table 2.

[5] = according to the literature data for ketorolac; cited from earlier work
[6] = tested on: pentylenetetrazole-induced convulsions; test: Pentylenetetrazole-induced seizures; assay type: in vivo, non-linear male mice; settings: mice; subcutaneously; dose-effect relationship of the seizure agent
Source text: In many cases, the presence of anticonvulsant (antiepileptic) effect of the compounds correlates with analgesic properties on corresponding models of neuralgia. As a general step is a primary screening of new anticonvulsant compounds on rodents with the help of pentylenetetrazole test and MES (maximal electroshock seizures) as they have a qualitative difference in development and manifestations of seizures. It is believed that the compound ability to prevent the MES-induced seizures is connected with impulse spread inhibition throughout the central nervous system. It is believed that the ability to prevent the MES-induced seizures development indicates the potential efficacy of the compound in the preventing propagation of a pulse along the neural tissue (see Tompson E. Medicines. Bioscreening/Under the editorship of A. V. Stefanova.-K.: Avitsenna, 1998.—250 p.).
The experiments were performed on non-linear male mice weighing 19-29 g. Pentylenetetrazole was administered subcutaneously in the cervical region of the back. […]
For MES-induced seizures experimental animals were exposed to electric stimulation through the corneal electrodes (50 Hz, 50 mA for mice during 0.2 s). The number of animals with the maximum tonic extension of the hind limbs, which occurs in almost 100% of the animals in the control group, was calculated. […]

## O=C(O)Cc1ccccc1Nc1c(Cl)cccc1Cl [Diclofenac-sodium, diclofenac-sodium, reference compound]
[1]
  Inhibition of edema in 2 hours (%): 43.0 ± 7.0 %
  Inhibition of edema in 4 hours (%): 57.10 ± 8.3 %
Formalin test in mice; phase 0-5 min
  I phase, % effect (decrease in the time of licking of the paw): 51.00 ± 11.64 %
Formalin test in mice; phase 15-40 min
  II phase, effect (decrease in the time of licking of the paw): 53.60 ± 11.02

## NCC1(CC(=O)O)CCCCC1 [Gabapentin, gabapentin]
MES-induced seizures
  Anticonvulsive activity (ED50), MES: 19 (16-24) mg/kg
[2]
  Anticonvulsive activity (ED50), Pentylenetetrazole: 32 (50-200) mg/kg

## O=C(c1ccccc1)c1ccc2n1CCC2C(=O)O (stereo not drawn) [Ketorolac, ketorolac]
[3]; 0.5 mg/kg group
  Changes in the threshold of pain perception, regarding healthy limb: −47.3 ± 3.9%
  Threshold of pain sensitivity, damaged limb: 287.9 ± 19.85 g/mm^2
  Threshold of pain sensitivity, healthy limb: 550.0 ± 19.0 g/mm^2
[3]; 0.5 mg/kg intragastrally once
  Pain perception threshold changes, regarding pathology before administration of compounds: +24.6 ± 5.2%
  Threshold of pain sensitivity 2 hours after compounds administration: 355.0 ± 19.5 g/mm^2
[3]; 0.5 mg/kg intragastrally once, listed as ketorolac
  Pain perception threshold changes, regarding pathology before administration of compounds: +24.6%
[3]; 3 mg/kg group
  Changes in the threshold of pain perception, regarding healthy limb: −45.7 ± 3.5%
  Threshold of pain sensitivity, damaged limb: 296.4 ± 19.6 g/mm^2
  Threshold of pain sensitivity, healthy limb: 547.1 ± 15.1 g/mm^2
[3]; 3 mg/kg intragastrally once
  Pain perception threshold changes, regarding pathology before administration of compounds: +70.1 ± 6.2%
  Threshold of pain sensitivity 2 hours after compounds administration: 501.4 ± 34.9 g/mm^2
[3]; 3 mg/kg intragastrally once, listed as ketorolac
  Pain perception threshold changes, regarding pathology before administration of compounds: +70.1%
[4]; 0.5 mg/kg orally, 1 hour
  Degree of pain sensitivity threshold increase in relation to the initial level: +7.5%
[4]; 0.5 mg/kg orally, 2 hours
  Degree of pain sensitivity threshold increase in relation to the initial level: +14.6%
[4]; 0.5 mg/kg orally, 4 hours
  Degree of pain sensitivity threshold increase in relation to the initial level: +28.6%
[4]; 0.5 mg/kg orally, 6 hours
  Degree of pain sensitivity threshold increase in relation to the initial level: +12.1%
[4]; 3 mg/kg orally, 1 hour
  Degree of pain sensitivity threshold increase in relation to the initial level: +43.4%
[4]; 3 mg/kg orally, 2 hours
  Degree of pain sensitivity threshold increase in relation to the initial level: +75.7%
[4]; 3 mg/kg orally, 4 hours
  Degree of pain sensitivity threshold increase in relation to the initial level: +65.7%
[4]; 3 mg/kg orally, 6 hours
  Degree of pain sensitivity threshold increase in relation to the initial level: +28.1%
[5]
  ED50 (analgesic effect): 3 mg/kg

## CC(C)C[C@H](CN)CC(=O)O [Pregabalin, pregabalin]
MES-induced seizures
  Anticonvulsive activity (ED50), MES: 73 (57-93) mg/kg
[2]
  Anticonvulsive activity (ED50), Pentylenetetrazole: 31 (16-62) mg/kg

## C1CCc2nnnn2CC1 [pentylenetetrazole, reference compound]
[6]
  ED95 of pentylenetetrazole (seizure agent): 120 mg/kg
